Test results reported in patent US8247211B2, “Glycopeptide antibiotics” (American Cyanamid Company, priority 2001, dated 2012).

Key:
[1] = Anatomic pathology (heart and kidney histopathology) in mice; format: in vivo, CD-1 mice; conditions: 20 mg/kg intravenously daily for 9 days, microscopic histopathology on day 10
Method in brief: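 Juvenile CD-1 mice (20 days old; 5 vehicle, 5 treated) received glycopeptide antibiotic 20 mg/kg i.v. daily for 9 days. Necropsied tissues formalin-fixed, paraffin-embedded, H&E stained and examined microscopically; findings graded slight to severe versus controls.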

Streptococcus sp. = assay: In vitro antibacterial evaluation: minimum inhibitory concentration (MIC), broth dilution method; format: cell-based; conditions: broth dilution, 18 hours at 35° C.
Method in brief: (§1)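 MIC by broth dilution in Mueller-Hinton II medium following NCCLS M7-A2. Inoculum was 5×10^5 CFU/mL and antibiotic was tested over 64-0.06 μg/mL. Gram-positive panel included clinical isolates resistant to methicillin, penicillin and/or vancomycin.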

Enterococcus sp. = assay: as above; format: cell-based; conditions: broth dilution, 18 hours at 35° C.
Method in brief: as §1

Staphylococcus sp. = assay: as above; format: cell-based; conditions: for MIC Staphylococcus aureus (ATCC 29213): strain ATCC 29213; for MIC Staphylococcus aureus (GC 1131): strain GC 1131; for MIC Staphylococcus aureus (GC 3051): strain GC 3051; for MIC Staphylococcus aureus (GC 3053): strain GC 3053; for MIC Staphylococcus aureus (GC 4541): strain GC 4541; for MIC Staphylococcus aureus (GC 4545): strain GC 4545; for MIC Staphylococcus haemolyticus (GC 4546): strain GC 4546; for MIC Coagulase Negative Staphylococcus (GC 4547): strain GC 4547; for MIC Coagulase Negative Staphylococcus (GC 6257): strain GC 6257
Method in brief: as §1

Escherichia coli = assay: as above; format: cell-based; conditions: 5×10^5 CFU/mL, 18 hours at 35° C.
Method in brief: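 First, organisms are seeded at 5×10^5 CFU/mL into Muller-Hinton II […]. Next, antibiotic is applied across 64-0.06 μg/mL by broth dilution (NCCLS M7-A2). Finally, the lowest inhibitory concentration is recorded as MIC.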

[2] = tested on: Streptococcus pneumoniae (GC 1894), penicillin resistant strain; assay: Acute lethal infection in mice (ED50); format: in vivo; conditions: female CD-1 mice, intraperitoneal challenge, intravenous dose 30 min. after infection, 7 day survival ratios
Method in brief: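 Female CD-1 mice challenged intraperitoneally with a bacterial dose lethal to untreated controls within 24-48 h. Compound given intravenously in saline or 5% dextrose 30 min post-infection, five mice per dose; ED50 from 7-day survival pooled over 3 tests.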

[3] = broth dilution, 18 hours at 35° C.

N=C1NCC(C(O)C2NC(=O)C(Cc3ccc(OC4OC(CO)C(OC5OC6COC7(OC6C(O)C5O)C5CC6CC(C5)CC7C6)C(O)C4O)cc3)NC(=O)C(CC3CCCCC3)NC(=O)CNC(=O)C(CO)NC(=O)C(C(O)C3CNC(=N)N3C3OC(CO)C(O)C(O)C3O)NC2=O)N1 (stereo not drawn) [Example 106, Cyclo[3-cyclohexylalanyl-O-[4-O-[4,6-O-(2-adamantylidene)hexopyranosyl]hexopyranosyl]-tyrosyl-3-(2-iminoimidazolidin-4-yl)seryl-3-(3-hexopyranosyl-2-iminoimidazolidin-4-yl)-serylserylglycyl]]
0: Anatomical Pathology (Day 10), Heart [1]
0.25 µg/mL: MIC Coagulase Negative Staphylococcus (GC 6257) (Staphylococcus sp.) | MIC Coagulase Negative Staphylococcus (GC 6257) (Staphylococcus sp.; [3])
0.5 to 1 µg/mL: MIC Staphylococcus haemolyticus (GC 4546) (Staphylococcus sp.) | MIC Staphylococcus haemolyticus (GC 4546) (Staphylococcus sp.; [3])
0.07 mg/kg: median effective dose (ED50), Streptococcus pneumoniae (GC 1894) [2]
1 to 2 µg/mL: MIC Enterococcus avium (GC 4558) (Enterococcus sp.; Enterococcus avium (GC 4558)) | MIC Enterococcus faecalis (GC 2691) (Enterococcus sp.; Enterococcus faecalis (GC 2691)) | MIC Enterococcus faecalis (GC 3059) (Enterococcus sp.; Enterococcus faecalis (GC 3059)) | MIC Enterococcus faecalis (GC 4552) (Enterococcus sp.; Enterococcus faecalis (GC 4552)) | MIC Enterococcus faecalis (GC 4553) (Enterococcus sp.; Enterococcus faecalis (GC 4553)) | MIC Enterococcus faecalis (GC 4554) (Enterococcus sp.; Enterococcus faecalis (GC 4554)) | MIC Enterococcus faecalis (GC 6189) (Enterococcus sp.; Enterococcus faecalis (GC 6189)) | MIC Enterococccus avium (GC 4558) (Enterococcus sp.; 5×10^5 CFU/mL) | MIC Enterococccus faecalis (GC 2691) (Enterococcus sp.; 5×10^5 CFU/mL) | MIC Enterococccus faecalis (GC 3059) (Enterococcus sp.; 5×10^5 CFU/mL) | MIC Enterococccus faecalis (GC 4552) (Enterococcus sp.; 5×10^5 CFU/mL) | MIC Enterococccus faecalis (GC 4553) (Enterococcus sp.; 5×10^5 CFU/mL) | MIC Enterococccus faecalis (GC 4554) (Enterococcus sp.; 5×10^5 CFU/mL) | MIC Enterococccus faecalis (GC 6189) (Enterococcus sp.; 5×10^5 CFU/mL)
<0.03 µg/mL: MIC Streptococcus agalactiae (GC 4564) (Streptococcus sp.; Streptococcus agalactiae (GC 4564)) | MIC Streptococcus pneumoniae (ATCC 6301) (Streptococcus sp.; Streptococcus pneumoniae (ATCC 6301)) | MIC Streptococcus pneumoniae (GC 1894) (Streptococcus sp.; Streptococcus pneumoniae (GC 1894)) | MIC Streptococcus pneumoniae (GC 4565) (Streptococcus sp.; Streptococcus pneumoniae (GC 4565)) | MIC Streptococcus pyogenes (GC 4563) (Streptococcus sp.; Streptococcus pyogenes (GC 4563)) | MIC Streptococcus agalactiae (GC 4564) (Streptococcus sp.; 5×10^5 CFU/mL) | MIC Streptococcus pneumoniae (GC 1894) (Streptococcus sp.; 5×10^5 CFU/mL) | MIC Streptococcus pneumoniae (GC 4565) (Streptococcus sp.; 5×10^5 CFU/mL) | MIC Streptococcus pneumonine (ATCC 6301) (Streptococcus sp.; 5×10^5 CFU/mL) | MIC Streptococcus pyogenes (GC 4563) (Streptococcus sp.; 5×10^5 CFU/mL)
0.5 to 2 µg/mL: MIC Enterococcus faecalis (ATCC 29212) (Enterococcus sp.; Enterococcus faecalis (ATCC 29212)) | MIC Enterococcus faecalis (GC 2242) (Enterococcus sp.; Enterococcus faecalis (GC 2242)) | MIC Enterococcus faecium (GC 2243) (Enterococcus sp.; Enterococcus faecium (GC 2243)) | MIC Enterococcus faecium (GC 4556) (Enterococcus sp.; Enterococcus faecium (GC 4556)) | MIC Enterococcus faecium (GC 4557) (Enterococcus sp.; Enterococcus faecium (GC 4557)) | MIC Enterococccus faecalis (ATCC 29212) (Enterococcus sp.; 5×10^5 CFU/mL) | MIC Enterococccus faecium (GC 2243) (Enterococcus sp.; 5×10^5 CFU/mL) | MIC Enterococccus faecium (GC 4556) (Enterococcus sp.; 5×10^5 CFU/mL) | MIC Enterococccus faecium (GC 4557) (Enterococcus sp.; 5×10^5 CFU/mL) | MIC Enterococcus faecalis (GC 2242) (Enterococcus sp.; 5×10^5 CFU/mL) | MIC Staphylococcus aureus (ATCC 29213) (Staphylococcus sp.) | MIC Staphylococcus aureus (ATCC 29213) (Staphylococcus sp.; [3]) | MIC Staphylococcus aureus (GC 1131) (Staphylococcus sp.) | MIC Staphylococcus aureus (GC 1131) (Staphylococcus sp.; [3]) | MIC Staphylococcus aureus (GC 3051) (Staphylococcus sp.) | MIC Staphylococcus aureus (GC 3051) (Staphylococcus sp.; [3]) | MIC Staphylococcus aureus (GC 3053) (Staphylococcus sp.) | MIC Staphylococcus aureus (GC 3053) (Staphylococcus sp.; [3]) | MIC Staphylococcus aureus (GC 4541) (Staphylococcus sp.) | MIC Staphylococcus aureus (GC 4541) (Staphylococcus sp.; [3]) | MIC Staphylococcus aureus (GC 4545) (Staphylococcus sp.) | MIC Staphylococcus aureus (GC 4545) (Staphylococcus sp.; [3]) | MIC Coagulase Negative Staphylococcus (GC 4547) (Staphylococcus sp.) | MIC Coagulase Negative Staphylococcus (GC 4547) (Staphylococcus sp.; [3]) | MIC Escherichia coli (GC 4560) (Escherichia coli)
32 to 64 µg/mL: MIC Escherichia coli (ATCC 25922) (Escherichia coli) | MIC Escherichia coli (GC 4559) (Escherichia coli)
